Assay results reported in patent publication US8952199B2, “Methods of and formulations for reducing and inhibiting the growth of the concentration of microbes in water-based fluids and systems used with them” (Dow Global Technologies LLC, priority 2007, dated 2015).

Experiments:
Format in all cases: cell-based
[1] = system: mixed oil/gas field aerobic bacteria; experiment: Biocidal efficacy against mixed oil/gas field aerobic bacteria in sterile salt solution, serial dilution count; conditions: for Concentration required to achieve at least 3 log reduction of aerobic bacteria: active, 37° C.
Protocol: A sterile salt solution (1.2490 g NaCl, 2.9290 g NaHCO3, 0.1910 g Na2CO3, 0.0060 g Na2SO4, 0.033 g CaCl2, and 0.0590 g MgCl2.6H2O in 1 L water) is contaminated with mixed oil/gas field aerobic bacteria at final bacterial concentrations of ˜10^7 CFU/mL. At day zero, either glutaraldehyde (UCARCIDE™ 250, 50% glutaraldehyde in water, The Dow Chemical Company) or THPS (AQUCAR™ THPS 75, 75% THPS in water, The Dow Chemical Company) is added and the solution mixed well to provide a desired final concentration. The solution is then incubated at 37° C. Bacterial populations are monitored over time using a serial dilution method. In experiments running over seven days, samples are reinoculated at day seven. […]

[2] = system: mixed oil/gas field anaerobic sulfate reducing bacteria; experiment: Biocidal efficacy against mixed oil/gas field anaerobic sulfate reducing bacteria in deaerated salt solution, serial dilution count; conditions: for Concentration required to achieve at lease 3 log bacterial reduction in 1 hr / Concentration required to achieve at least 3 log reduction of anaerobic sulfate reducing bacteria: active; for Concentration required to achieve at lease 3 log bacterial reduction in 1 hr: biocide alone, anaerobic oil/gas field SRB bacteria; for Concentration required to achieve at least 3 log reduction of anaerobic sulfate reducing bacteria: 37° C.
Protocol: A sterile salt solution as described in Example 1 is deaerated, then contaminated with mixed oil/gas field anaerobic sulfate reducing bacteria at final bacterial concentrations of ˜10^7 CFU/mL. At time=zero, either glutaraldehyde (UCARCIDE™ 250) or THPS (AQUCAR™ THPS 75) is added and the solution mixed well to provide a desired final concentration. The solutions are incubated at 37° C. in an anaerobic environment (Bactron III anaerobic chamber). Bacterial populations are monitored over time using a serial dilution method. In experiments running over seven days, samples are reinoculated at day seven.
(§1) The testing protocols described in Examples 1 and 2, respectively, are used for oil/gas field aerobic bacteria and anaerobic sulfate reducing bacteria. For the standard bacterial strains Enterobacter aerogenes ATCC 13048, Salmonella choleraesius ATCC 10708, Pseudomonas aeruginosa ATCC 10145, Staphylococcus aureus ATCC 6538, Klebsiella pneumoniae ATCC 8308, Bacillus subtillus ATCC 8473, Escherichia coli ATCC 11229, and Pseudomonas aeruginosa ATCC 39451, separate experiments are performed as described in Example 1, but using a sterile 0.85% NaCl solution instead of the salt solution. For standard marine bacteria Pseudomonas sp. ATCC 39451, experiments are performed as described in Examples 1 and 2, but at pH 8.0 using artificial sea water (24.6 g NaCl, 0.67 g KCl, 1.36 g CaCl2.2H2O, 6.29 g MgSO4.7H2O, 4.66 g MgCl2.6H2O and 0.18 g NaHCO3 in 1 L water). All data is collected at time=1 hour.

[3] = system: Aerobic bacteria (ATCC bacterial strains, oil/gas field aerobic bacteria, standard marine bacterium); experiment: Concentration for at least 3 log reduction in 1 hr, aerobic bacteria (one value for ATCC strains, oil/gas field aerobic bacteria and standard marine bacterium); conditions: active, biocide alone
Protocol: A sterile salt solution (1.2490 g NaCl, 2.9290 g NaHCO3, 0.1910 g Na2CO3, 0.0060 g Na2SO4, 0.033 g CaCl2, and 0.0590 g MgCl2.6H2O in 1 L water) is contaminated with mixed oil/gas field aerobic bacteria at final bacterial concentrations of ˜10^7 CFU/mL. At day zero, either glutaraldehyde (UCARCIDE™ 250, 50% glutaraldehyde in water, The Dow Chemical Company) or THPS (AQUCAR™ THPS 75, 75% THPS in water, The Dow Chemical Company) is added and the solution mixed well to provide a desired final concentration. The solution is then incubated at 37° C. Bacterial populations are monitored over time using a serial dilution method. In experiments running over seven days, samples are reinoculated at day seven.
as §1, with “ATCC 39451, experiments are performed as described in Examples 1 and 2, but at pH 8.0 using artificial sea water (24.6 g NaCl, 0.67 g KCl, 1.36 g CaCl2.2H2O, 6.29 g MgSO4.7H2O, 4.66 g MgCl2.6H2O and 0.18 g NaHCO3 in 1 L water). All data is collected at time=1 hour.” left out

[4] = time interval 8 days, reinoculated at day seven
[5] = time interval 9 days, reinoculated at day seven

Molecule | Concentration required to achieve at least 3 log reduction of aerobic bacteria ([1]; time interval 2 hrs) | Concentration required to achieve at least 3 log reduction of aerobic bacteria ([1]; time interval 4 hrs) | Concentration required to achieve at least 3 log reduction of aerobic bacteria ([1]; time interval 1 day) | Concentration required to achieve at least 3 log reduction of aerobic bacteria ([1]; time interval 3 days) | Concentration required to achieve at least 3 log reduction of aerobic bacteria ([1]; time interval 4 days) | Concentration required to achieve at least 3 log reduction of aerobic bacteria ([1]; time interval 7 days) | Concentration required to achieve at least 3 log reduction of aerobic bacteria [1, 4] | Concentration required to achieve at least 3 log reduction of aerobic bacteria [1, 5] | Concentration required to achieve at lease 3 log bacterial reduction in 1 hr [2] | Concentration required to achieve at least 3 log reduction of anaerobic sulfate reducing bacteria ([2]; time interval 2 hrs) | Concentration required to achieve at least 3 log reduction of anaerobic sulfate reducing bacteria ([2]; time interval 4 hrs) | Concentration required to achieve at least 3 log reduction of anaerobic sulfate reducing bacteria ([2]; time interval 1 day) | Concentration required to achieve at least 3 log reduction of anaerobic sulfate reducing bacteria ([2]; time interval 2 days) | Concentration required to achieve at least 3 log reduction of anaerobic sulfate reducing bacteria ([2]; time interval 3 days) | Concentration required to achieve at least 3 log reduction of anaerobic sulfate reducing bacteria ([2]; time interval 4 days) | Concentration required to achieve at least 3 log reduction of anaerobic sulfate reducing bacteria ([2]; time interval 7 days) | Concentration required to achieve at least 3 log reduction of anaerobic sulfate reducing bacteria [2, 4] | Concentration required to achieve at least 3 log reduction of anaerobic sulfate reducing bacteria [2, 5] | Concentration required to achieve at lease 3 log bacterial reduction in 1 hr [3] | other results
tetrakis(hydroxymethyl)phosphonium sulfate [THPS] | 25.0 ppm | 25.0 ppm | 12.5 ppm | 12.5 ppm | 25.0 ppm | 25.0 ppm | 100.0 ppm | 100.0 ppm | 44.49 ppm | 50.0 ppm | 25.0 ppm | 25.0 ppm | 12.5 ppm | 6.3 ppm | 6.3 ppm | 6.3 ppm | 12.5 ppm | 25.0 ppm | 44.49 ppm | 
O=CCCCC=O [glutaraldehyde] | 25.0 ppm | 25.0 ppm | 6.3 ppm | 6.3 ppm | 6.3 ppm | 12.5 ppm | 25.0 ppm | 25.0 ppm | 29.67 ppm | 12.5 ppm | 12.5 ppm | 12.5 ppm | 12.5 ppm | 25.0 ppm | 25.0 ppm | 25.0 ppm | 25.0 ppm | 50.0 ppm | 44.49 ppm | Efficacy against aerobic bacteria, compared in words ([1]; glutaraldehyde versus hydroxymethyl-substituted phosphorus compounds): higher efficacy against aerobic bacteria; Speed of action on anaerobic sulfate reducing bacteria, compared in words ([2]; glutaraldehyde versus hydroxymethyl-substituted compounds): more rapid results
